Data: publication PMC2423185 (BMC Biochemistry, 2008)

Molecular target: T1, H. pylori arginase (RocF) (Helicobacter pylori, UniProt O25949)
T1 construct: gene HP_1399
T1 sequence (O25949 entry or part of it): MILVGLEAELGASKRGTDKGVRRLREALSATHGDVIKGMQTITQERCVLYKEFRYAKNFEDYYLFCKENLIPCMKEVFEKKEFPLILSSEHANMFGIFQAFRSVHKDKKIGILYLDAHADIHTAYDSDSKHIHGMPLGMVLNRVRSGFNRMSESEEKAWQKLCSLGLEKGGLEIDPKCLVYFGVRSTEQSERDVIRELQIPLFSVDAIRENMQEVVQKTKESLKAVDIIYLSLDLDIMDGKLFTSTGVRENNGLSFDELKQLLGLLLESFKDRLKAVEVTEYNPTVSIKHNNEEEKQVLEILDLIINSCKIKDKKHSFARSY

`N=C(N)NCCC[C@H](N)C(=O)O` [L-arginine] was tested, and the “L-ornithine formation by acidified ninhydrin, 515 nm” value was “With E. coli (pBS-rocF), optimal arginase activity was with cobalt”.
